Results reported in patent US8192962B2, “Processes for detecting toxic substances” (Daikin Industries, Ltd., priority 2001, dated 2012).

Tested on: Mitochondria-located protein genes
Experiment: DNA chip mRNA expression in yeast, mitochondria-located protein genes (Table 2)
Format: cell-based, Saccharomyces cerevisiae S288C
Conditions: cells incubated two hours with the chemical substance
How it was run: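 Values are treated/untreated fluorescence ratios from a whole-genome yeast DNA chip hybridized over 12 hours at 65° C with Cy3- or Cy5-labelled cDNA from poly(A) mRNA. Log-phase S288C yeast in YPD at 25° C had received a single toxic chemical for two hours, dosed to slow growth without killing.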

Substance: Na2As [(1)]
- The level of expressed mRNA in the presence of chemical substance/The level of expressed mRNA in the absence of chemical substance (yeast gene YJR121W): 0.9
- The level of expressed mRNA in the presence of chemical substance/The level of expressed mRNA in the absence of chemical substance (yeast gene YKL003C): 1.1
- The level of expressed mRNA in the presence of chemical substance/The level of expressed mRNA in the absence of chemical substance (yeast gene YKL016C): 1.5
- The level of expressed mRNA in the presence of chemical substance/The level of expressed mRNA in the absence of chemical substance (yeast gene YKL141W): 1.6
- The level of expressed mRNA in the presence of chemical substance/The level of expressed mRNA in the absence of chemical substance (yeast gene YKL142W): 1.8
- The level of expressed mRNA in the presence of chemical substance/The level of expressed mRNA in the absence of chemical substance (yeast gene YKL148C): 0.9
- The level of expressed mRNA in the presence of chemical substance/The level of expressed mRNA in the absence of chemical substance (yeast gene YKL170W): 1.0
- The level of expressed mRNA in the presence of chemical substance/The level of expressed mRNA in the absence of chemical substance (yeast gene YKL194C): 0.9
- The level of expressed mRNA in the presence of chemical substance/The level of expressed mRNA in the absence of chemical substance (yeast gene YKR066C): 0.9
- The level of expressed mRNA in the presence of chemical substance/The level of expressed mRNA in the absence of chemical substance (yeast gene YLL041C): 1.1
- The level of expressed mRNA in the presence of chemical substance/The level of expressed mRNA in the absence of chemical substance (yeast gene YLR038C): 2.3
- The level of expressed mRNA in the presence of chemical substance/The level of expressed mRNA in the absence of chemical substance (yeast gene YLR259C): 0.7
- The level of expressed mRNA in the presence of chemical substance/The level of expressed mRNA in the absence of chemical substance (yeast gene YLR295C): 1.4
- The level of expressed mRNA in the presence of chemical substance/The level of expressed mRNA in the absence of chemical substance (yeast gene YLR304C): 0.7
- The level of expressed mRNA in the presence of chemical substance/The level of expressed mRNA in the absence of chemical substance (yeast gene YLR348C): 1.1
- The level of expressed mRNA in the presence of chemical substance/The level of expressed mRNA in the absence of chemical substance (yeast gene YLR395C): 1.8
- The level of expressed mRNA in the presence of chemical substance/The level of expressed mRNA in the absence of chemical substance (yeast gene YML054C): 1.5
- The level of expressed mRNA in the presence of chemical substance/The level of expressed mRNA in the absence of chemical substance (yeast gene YML120C): 1.1
- The level of expressed mRNA in the presence of chemical substance/The level of expressed mRNA in the absence of chemical substance (yeast gene YML129C): 1.1
- The level of expressed mRNA in the presence of chemical substance/The level of expressed mRNA in the absence of chemical substance (yeast gene YMR023C): 1.4
- The level of expressed mRNA in the presence of chemical substance/The level of expressed mRNA in the absence of chemical substance (yeast gene YMR035W): 1.2
- The level of expressed mRNA in the presence of chemical substance/The level of expressed mRNA in the absence of chemical substance (yeast gene YMR083W): 1.4
- The level of expressed mRNA in the presence of chemical substance/The level of expressed mRNA in the absence of chemical substance (yeast gene YMR089C): 0.8
- The level of expressed mRNA in the presence of chemical substance/The level of expressed mRNA in the absence of chemical substance (yeast gene YMR152W): 0.9
- The level of expressed mRNA in the presence of chemical substance/The level of expressed mRNA in the absence of chemical substance (yeast gene YMR203W): 0.8
- The level of expressed mRNA in the presence of chemical substance/The level of expressed mRNA in the absence of chemical substance (yeast gene YMR267W): 0.8
- The level of expressed mRNA in the presence of chemical substance/The level of expressed mRNA in the absence of chemical substance (yeast gene YNL055C): 1.1
- The level of expressed mRNA in the presence of chemical substance/The level of expressed mRNA in the absence of chemical substance (yeast gene YNL071W): 0.9
- The level of expressed mRNA in the presence of chemical substance/The level of expressed mRNA in the absence of chemical substance (yeast gene YNL073W): 0.8
- The level of expressed mRNA in the presence of chemical substance/The level of expressed mRNA in the absence of chemical substance (yeast gene YNL104C): 1.1
- The level of expressed mRNA in the presence of chemical substance/The level of expressed mRNA in the absence of chemical substance (yeast gene YNL256W): 0.7
- The level of expressed mRNA in the presence of chemical substance/The level of expressed mRNA in the absence of chemical substance (yeast gene YOL096C): 1.1
- The level of expressed mRNA in the presence of chemical substance/The level of expressed mRNA in the absence of chemical substance (yeast gene YOR020C): 1.4
- The level of expressed mRNA in the presence of chemical substance/The level of expressed mRNA in the absence of chemical substance (yeast gene YOR037W): 1.0
- The level of expressed mRNA in the presence of chemical substance/The level of expressed mRNA in the absence of chemical substance (yeast gene YOR100C): 1.3
- The level of expressed mRNA in the presence of chemical substance/The level of expressed mRNA in the absence of chemical substance (yeast gene YOR130C): 0.8
- The level of expressed mRNA in the presence of chemical substance/The level of expressed mRNA in the absence of chemical substance (yeast gene YOR142W): 1.0
- The level of expressed mRNA in the presence of chemical substance/The level of expressed mRNA in the absence of chemical substance (yeast gene YOR150W): 1.7
- The level of expressed mRNA in the presence of chemical substance/The level of expressed mRNA in the absence of chemical substance (yeast gene YOR176W): 0.7
- The level of expressed mRNA in the presence of chemical substance/The level of expressed mRNA in the absence of chemical substance (yeast gene YOR187W): 1.0
- The level of expressed mRNA in the presence of chemical substance/The level of expressed mRNA in the absence of chemical substance (yeast gene YOR316C): 0.7
- The level of expressed mRNA in the presence of chemical substance/The level of expressed mRNA in the absence of chemical substance (yeast gene YPL040C): 1.1
- The level of expressed mRNA in the presence of chemical substance/The level of expressed mRNA in the absence of chemical substance (yeast gene YPL134C): 1.5
- The level of expressed mRNA in the presence of chemical substance/The level of expressed mRNA in the absence of chemical substance (yeast gene YPL135W): 0.9
- The level of expressed mRNA in the presence of chemical substance/The level of expressed mRNA in the absence of chemical substance (yeast gene YPL215W): 1.1
- The level of expressed mRNA in the presence of chemical substance/The level of expressed mRNA in the absence of chemical substance (yeast gene YPL262W): 1.0
- The level of expressed mRNA in the presence of chemical substance/The level of expressed mRNA in the absence of chemical substance (yeast gene YPR024W): 0.7
- The level of expressed mRNA in the presence of chemical substance/The level of expressed mRNA in the absence of chemical substance (yeast gene YPR037C): 1.2
- The level of expressed mRNA in the presence of chemical substance/The level of expressed mRNA in the absence of chemical substance (yeast gene YPR047W): 1.0
- The level of expressed mRNA in the presence of chemical substance/The level of expressed mRNA in the absence of chemical substance (yeast gene YPR134W): 1.1
